Here are results for 3 molecules from paper PMC7508162 (Frontiers in Pharmacology, 2020).

In one data set the target is T1, NTPDase2 (Homo sapiens, UniProt Q9Y5L3).
T1 sequence (Q9Y5L3 1-495): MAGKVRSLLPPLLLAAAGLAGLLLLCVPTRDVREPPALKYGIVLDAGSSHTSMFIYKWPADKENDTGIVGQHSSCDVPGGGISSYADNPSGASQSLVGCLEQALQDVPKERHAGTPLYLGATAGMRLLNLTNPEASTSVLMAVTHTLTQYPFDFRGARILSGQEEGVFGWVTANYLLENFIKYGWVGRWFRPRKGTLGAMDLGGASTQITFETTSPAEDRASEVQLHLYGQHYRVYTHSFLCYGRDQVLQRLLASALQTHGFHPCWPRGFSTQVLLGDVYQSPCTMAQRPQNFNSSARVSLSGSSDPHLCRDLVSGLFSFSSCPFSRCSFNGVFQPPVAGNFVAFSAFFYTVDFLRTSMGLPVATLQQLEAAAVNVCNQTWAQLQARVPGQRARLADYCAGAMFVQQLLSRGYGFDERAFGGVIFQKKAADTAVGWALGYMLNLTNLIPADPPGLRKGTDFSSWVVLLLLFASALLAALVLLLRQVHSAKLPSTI
The data set is described as follows: Malachite green assay for NTPDase2. The following applies: for Ki: ATP 50 µM, recombinant COS-7 cell membrane preparation, read-out: Ki ± SEM. On the set-up: expressed in transfected cells; host or cells: COS-7 cell membrane preparations. In kind it is biochemical. Here is the method:
(§1) The enzymatic activity assay was determined essentially as previously described ([Cogan et al., 1999]) with a few adaptations. The reaction buffer contained 10 mM HEPES, 2 mM CaCl2, 1 mM MgCl2, pH 7.4 in a final volume of 50 μl in transparent 96-well half area plates. For CD39 (NTPDase1), we made use of human umbilical cord membranes preparations which express high levels of the enzyme. For the other human NTPDase isoenzymes, we had to resort to recombinant expression. Human umbilical cord membrane preparations (250 ng) natively expressing high amounts of CD39, or the respective recombinant COS-7 cell membrane preparations expressing the appropriate NTPDase isoenzyme (ca. 100 ng of protein depending on enzyme activity) ([Sévigny et al., 1997]; [Lecka et al., 2013]) with or without inhibitor were preincubated at 37°C and gentle shaking (Eppendorf Thermomixer comfort at 500 rpm) for 5 min. The amount of enzyme preparation was adjusted to ensure 10–20% of substrate conversion. […] ([Kukulski et al., 2005]). After 15 min of incubation at 37°C with gentle shaking, the reaction was stopped by adding the detection reagents (20 µl malachite green solution, 0.6 mM, and 30 µl ammonium molybdate solution, 20 mM, in sulfuric acid, 1.5 M). The released (inorganic) phosphate was quantified after 20 min of gentle shaking at 25°C by measuring the absorption of the malachite green-phosphomolybdate complex at 600 nm using a BMG PheraStar FS plate reader (BMG Labtech GmbH, Ortenberg, Germany). The corrected absorption was calculated by subtracting the absorption of the negative control samples, which were incubated with denatured enzyme (90°C, 15 min), and the inhibition was calculated as follows:
% Inhibition=(B−T)/B*100%
where B is the average corrected absorption of the positive control without inhibitor and T the corrected absorption in the presence of test compound.
(§2) Full concentration-inhibition curves were determined with inhibitor concentrations ranging from 0.1 to 300 µM in the presence of 2% DMSO. Three independent experiments were performed (n = 3) and curves were calculated by the GraphPad Prism 8 software. The Ki value was calculated using the Cheng-Prusoff equation for competitive inhibitors: […]

A further data set deals with T2, NTPDase3 (Homo sapiens, UniProt O75355).
T2 sequence (O75355 1-529): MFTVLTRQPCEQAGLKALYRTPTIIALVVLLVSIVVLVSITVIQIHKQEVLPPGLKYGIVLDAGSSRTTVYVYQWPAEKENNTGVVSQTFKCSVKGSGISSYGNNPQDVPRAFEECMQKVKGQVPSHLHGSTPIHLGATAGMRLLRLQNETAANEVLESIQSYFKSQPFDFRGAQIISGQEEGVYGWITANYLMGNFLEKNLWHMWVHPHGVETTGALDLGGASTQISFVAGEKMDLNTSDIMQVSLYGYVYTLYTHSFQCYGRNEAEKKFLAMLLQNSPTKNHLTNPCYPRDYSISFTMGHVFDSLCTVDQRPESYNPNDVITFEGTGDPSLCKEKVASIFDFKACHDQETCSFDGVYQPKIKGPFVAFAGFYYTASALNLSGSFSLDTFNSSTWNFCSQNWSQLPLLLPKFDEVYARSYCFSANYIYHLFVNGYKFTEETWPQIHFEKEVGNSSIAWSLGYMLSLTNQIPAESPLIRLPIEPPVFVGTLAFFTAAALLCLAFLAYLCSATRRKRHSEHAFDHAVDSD
In words: Malachite green assay for NTPDase3. It is filed as biochemical. On the set-up: expressed in transfected cells; host or cells: COS-7 cell membrane preparations. The following applies: ATP 50 µM, recombinant COS-7 cell membrane preparation, read-out: Ki ± SEM. Here is the method:
as §1
% Inhibition=(B−T)/B*100% […]
as §2

A short description of data set [1]: Metabolic stability in mouse liver microsomes. It is filed as in vitro ADME. The following applies: both sexes; mouse liver microsomes 0.5 mg/mL; compound 1 μM. Here is the method:
The experiments were performed by Pharmacelsus, Saarbrücken, Germany (https://www.pharmacelsus.com/services/in-vitro-adme/) using human and mouse liver microsomes (0.5 mg/mL, mixed gender, pooled). Compounds were tested at a concentration of 1 μM. Data points represent means of two separate experiments performed in duplicates.

The term Ki denotes the equilibrium dissociation constant of an inhibitor or competing ligand from its target. By half-life is commonly meant the time needed for the level to fall by half in the phase considered. As to `CCCCNc1nc2c(NC)ncnc2n1[C@@H]1O[C@H](COP(=O)(O)OP(=O)(O)C(Br)(Br)P(=O)(O)O)[C@@H](O)[C@H]1O` [Compound 33, (Dibromo((((((2R,3S,4R,5R)-5-(8-(butylamino)-6-(methylamino)-9H-purin-9-yl)-3,4-dihydroxy-tetrahydrofuran-2-yl)methoxy)(hydroxy)phosphoryl)oxy)-(hydroxy)phosphoryl)methyl)-phosphonic Acid], the Ki on NTPDase2 (NTPDase2) is 78 ± 0.6 µM; on NTPDase3, 7.8 ± 1.34 µM. For the same molecule, the half-life at 1 μM in data set [1] is less than 1 min.

With `CCCCSc1nc2c(N)ncnc2n1[C@@H]1O[C@H](COP(=O)(O)OP(=O)(O)C(Br)(Br)P(=O)(O)O)[C@@H](O)[C@H]1O` [Compound 31, (((((((2R,3S,4R,5R)-5-(6-Amino-8-(butylthio)-9H-purin-9-yl)-3,4-dihydroxytetrahydrofuran-2-yl)methoxy)(hydroxy)-phosphoryl)oxy)(hydroxy)phosphoryl)dibromomethyl)-phosphonic Acid], the “NTPDase2 inhibition (in words)” value at NTPDase2 is “weakly inhibit”. In addition, the Ki amounted to 22.2 ± 0.5 µM on NTPDase2 (NTPDase2) and 1.54 ± 0.34 µM on NTPDase3. Besides, the half-life at 1 μM in data set [1] was less than 1 min.

As usually defined, the % inhibition is the percentage by which the read-out fell short of the control. The low end stands for little suppression, the high end for strong suppression. Take `CCN(CC)c1ncnc2c1ncn2[C@@H]1O[C@H](COP(=O)(O)OP(=O)(O)C(Br)(Br)P(=O)(O)O)[C@@H](O)[C@H]1O` [ARL67156, (Dibromo((((((2R,3S,4R,5R)-5-(6-(diethylamino)-9H-purin-9-yl)-3,4-dihydroxytetrahydrofuran-2-yl)methoxy)-(hydroxy)-phosphoryl)oxy)(hydroxy)phosphoryl)methyl)-phosphonic Acid, reference compound]: the Ki on NTPDase2 (NTPDase2) is more than 50 µM; at NTPDase3, 7.94 ± 1.36 µM. For the same molecule, the “% inhibition” value on NTPDase2 (NTPDase2, test concentration not given) worked out at 18%. The molecule also gave a half-life at 1 μM in data set [1] of less than 1 min.
